Legend:
[1] = Effect of pH on extraction of PAA from enzymatic liquor with Phytosol D; type: physicochemical; conditions: 20 ml enzymatic liquor extracted with 40 ml Phytosol D
Procedure: This example was carried out to assess the efficiency and selectivity of Phytosol D in extracting PAA from the enzymatic liquor at different pH's.
The enzymatic liquor was prepared as described in Example 1 using the enzyme resin from Example C2.
20 ml samples of the liquor were extracted with 40 ml of Phytosol D, at various pH's, using hand held apparatus as follows:
The apparatus consists of a 100 ml graduated glass tube fitted with a filter assembly and a clamping ring which in turn is fitted with a needle valve. The material or solution to be extracted is charged into the tube. The filter is then assembled with the aid of a sealing O ring followed by the clamping ring ensuring that a tight fit is achieved. Phytosol liquid gas is introduced to the glass tube from an aerosol can via the needle valve. The contents of the tube are mixed by vigorous shaking after which the tube is inverted and allowed to stand until the two layers are separated. The Phytosol is then released via the needle valve into an evaporator bottle taking care not to allow any of the aqueous layer to co-discharge.

[2] = background statement; cited from earlier work
[3] = Solubility of 6-APA in Phytosol solvent; type: physicochemical

SMILES | Removed (% of total w/w) ([1]; pH 1.4) | Removed (% of total w/w) ([1]; pH 3.8) | Removed (% of total w/w) ([1]; pH 5.3) | Removed (% of total w/w) ([1]; pH 6.5) | Removed (% of total w/w) ([1]; pH 8.0) | solubility in water [2] | solubility in the solvent [3]
CC1(C)S[C@@H]2[C@H](N)C(=O)N2[C@H]1C(=O)O [6-APA, 6-Aminopenicillanic acid] | <1 % of total w/w | <1 % of total w/w | 0 % of total w/w | 0 % of total w/w | 0 % of total w/w | around 2% | negligible
O=C(O)Cc1ccccc1 [PAA, Phenylacetic acid] | >99 % of total w/w | >99 % of total w/w | 6.5 % of total w/w | <2 % of total w/w | 0 % of total w/w | – | –
